The record followed here is paper PMC12202533, “Mechanistic Insights and Anti-cancer Activity of 2H-benzo[b][1,4]oxazin-3(4H)-one Linked 1,2,3-Triazoles in Human Cancer Cells” (Frontiers in Pharmacology, 2025).

Data set [1] has as its system A549. The experiment in a line: CCK-8 cell viability assay and IC50 measurement. Type of data set: cell-based, human. The conditions noted are these: for viability at 40 µM / IC50 / inhibition at 40 µM: Homo sapiens; for viability at 40 µM / inhibition at 40 µM: A549, 40 μM, 48 h; for viability at 40 µM: CCK-8, read-out: Cell viability (100%), 40 μM, 48 h, A549; for inhibition at 40 µM: read-out: inhibition rate. The method, then:
(§1) In order to investigate the anticancer activity of new synthetic 1,4-benzoxazinone-linked 1,2,3-triazole compounds, we chose several cancer cell lines, including A549 (lung), Huh7 (liver), MCF-7 (breast), HCT-116 (colon), and SKOV3 (ovary), and measured cell viability using the CCK-8 assay. Cells were exposed to 40 μM of the compounds for 48 h, and then cell viability was determined. […] In addition, we used the reference drug gefitinib as a positive control and measured its cell viability on different cell lines. […] We used BEAS-2B cells as a normal cell line to determine the toxic effects of these compounds on normal cells. […] Furthermore, we evaluated the IC50 of these compounds in A549.
(§2) Human cancer cell lines A549, Huh7, MCF-7, HCT-116, and SKOV3 were obtained from ATCC. The cells were cultured in DMEM or RPMI 1640 medium supplemented with 10% FBS and 1% penicillin/streptomycin and incubated at 37°C in a CO2-humidified atmosphere.
(§3) Cells were cultured in DMEM or RPMI 1640 medium containing 10% FBS and 1% penicillin/streptomycin at 37°C and 5% CO2. The CCK-8 assay was performed on several human cancer cell lines, including A549, Huh7, MCF-7, HCT-116, and SKOV3, according to the manufacturer’s instructions. Cells were plated at a density of 5 × 10^3 cells per well in a 96-well plate. After 24 h of incubation, cells were treated with 40 μM compounds for 48 h. Cell viability was assessed by adding 10 μL of CCK-8 reagent, dissolved in the cell culture medium, and incubating for 1 h. Absorbance was measured at 450 nm using a microplate reader. IC50 values were determined using a dose-response curve with six concentrations (0, 10, 20, 40, 80, and 160 μM), and IC50 values were calculated using GraphPad Prism software.
(Tetrazolium assays rely on reduction of a dye to a coloured formazan, in cell work by metabolically active cells.)

Data set [2] relates to SKOV3. The data set can be described thus: CCK-8 cell viability assay. The settings on record: Homo sapiens, SK-OV-3, SKOV3, 40 μM, 48 h, read-out: Cell viability (100%), 40 μM, 48 h, SKOV3. Type of data set: cell-based. How it is done: as §1, §2, §3
In data set [3] the test system is Huh7. The data set can be described thus: CCK-8 cell viability assay. Type of data set: cell-based. The settings on record: Homo sapiens, Huh-7, Huh7, 40 μM, 48 h, read-out: Cell viability (100%), 40 μM, 48 h, Huh7. How it is done:
as §1, §2, §3

In data set [4] the test system is MCF-7. The data set can be described thus: CCK-8 cell viability assay. Type of data set: cell-based. The conditions noted are these: Homo sapiens, MCF7, MCF-7, 40 μM, 48 h, read-out: Cell viability (100%), 40 μM, 48 h, MCF-7. How it is done: as §1, §2, §3
The subject of data set [5] is HCT-116. The data set can be described thus: CCK-8 cell viability assay. The class given is cell-based. The settings on record: Homo sapiens, HCT-116, 40 μM, 48 h, read-out: Cell viability (100%), 40 μM, 48 h, HCT-116. How it is done:
as §1, §2, §3

A short description of data set [6]: CCK-8 cell viability assay, normal cell line. Type of data set: cell-based. The settings on record: human, BEAS-2B cells (normal cell line), BEAS-2B normal cell line, read-out: Cell viability (100%), 40 μM, 48 h, BEAS-2B. The method, then:
as §1, §3

The mark [7] stands for this setting: A549, 48 h, read-out: IC50 48 h.
[8] abbreviates: A549, 72 h, read-out: IC50 72 h.

Structures are written as SMILES. Where two headings read alike, the source gives them in different places.

For `N#Cc1ccc(F)cc1Cn1cc(-c2cccc(C(=O)Nc3ccc4c(c3)NC(=O)CO4)c2)nn1` [Compound 13d], the viability at 40 µM in data set [1] was found to be 133 ± 1.67%; in data set [2], 120 ± 1.47%; in data set [3], 126 ± 1.71%; in data set [4], 137 ± 1.49%; in data set [5], 135 ± 3.97%. In data set [6], the viability at 48 h, 40 µM turned out to be 96.6 ± 2.6%.
As for `O=C1COc2ccc(NC(=O)c3cccc(-c4cn(Cc5ccc(I)cc5)nn4)c3)cc2N1` [Compound 13s], the viability at 40 µM in data set [1] turned out to be 128.8 ± 1.19%; in data set [2], 118 ± 1.64%; in data set [3], 137 ± 1.61%; in data set [4] it was 127 ± 3.34%; in data set [5], 150.6 ± 1.11%. For the same compound, the viability at 48 h, 40 µM in data set [6] was determined as 94.7 ± 1.56%.
On to `O=C1COc2ccc(NC(=O)c3cccc(-c4cn(Cc5cccc(C(F)(F)F)c5)nn4)c3)cc2N1` [Compound 13m], for which the viability at 40 µM in data set [1] was found to be 126 ± 1.9%; in data set [2], 126 ± 2.44%; in data set [3], 124 ± 3.41%; in data set [4], 127 ± 1.71%; in data set [5], 144 ± 2.31%. In data set [6], the viability at 48 h, 40 µM was 107.9 ± 0.77%.
As for `O=C1COc2ccc(NC(=O)c3cccc(-c4cn(Cc5ccc(F)c(Cl)c5)nn4)c3)cc2N1` [Compound 13f], the IC50 in data set [1] (setting [7]) was 55.2 ± 1.56 µM; in data set [1] (setting [8]), 53.3 ± 6.64 µM. Further, the viability at 40 µM in data set [1] worked out at 44.5 ± 3.23%; in data set [2], 83.7 ± 1.74%; in data set [3], 88.4 ± 1.3%; in data set [4], 85.5 ± 2.2%; in data set [5], 68 ± 5.4%. The inhibition at 40 µM in data set [1] is greater than 50%. In data set [6], the viability at 48 h, 40 µM came to 124 ± 3.82%.
Take `O=C1COc2ccc(NC(=O)c3cccc(-c4cn(-c5ccc(Br)cc5F)nn4)c3)cc2N1` [Compound 14f]: the viability at 40 µM in data set [1] worked out at 39.6 ± 1.77%; in data set [2], 79.8 ± 2.53%; in data set [3], 71.4 ± 1.66%; in data set [4], 74.2 ± 1.07%; in data set [5] it was 80.62 ± 0.6%. Also, the inhibition at 40 µM in data set [1] is greater than 50%. Besides, the viability at 48 h, 40 µM in data set [6] came out at 90.98 ± 0.38%.
In the case of `O=C1COc2ccc(NC(=O)c3cccc(-c4cn(Cc5ccc(C(F)(F)F)cc5)nn4)c3)cc2N1` [Compound 13p], the viability at 40 µM came out at 94.7 ± 6.71% in data set [1]; 104 ± 1.06% in data set [2]; 119 ± 1.7% in data set [3]; 113 ± 1.67% in data set [4]; 120 ± 2.54% in data set [5]. For the same compound, in data set [6], the viability at 48 h, 40 µM was determined as 102 ± 4.05%.
As for `O=C1COc2ccc(NC(=O)c3cccc(-c4cn(Cc5ccc(F)cc5)nn4)c3)cc2N1` [Compound 13i], the viability at 40 µM was 130 ± 1.04% in data set [1]; 124.2 ± 1.08% in data set [2]; 120 ± 2.62% in data set [3]; 124.6 ± 0.87% in data set [4]; 142.6 ± 0.97% in data set [5]. For the same compound, in data set [6], the viability at 48 h, 40 µM stood at 117 ± 2.34%.
`O=C1COc2ccc(NC(=O)c3cccc(-c4cn(Cc5cccc(F)c5)nn4)c3)cc2N1` [Compound 13r]: the viability at 40 µM turned out to be 70 ± 2.73% in data set [1]; 115.2 ± 0.67% in data set [2]; 131 ± 2.34% in data set [3]; 122 ± 2.48% in data set [4]; 74.9 ± 3.73% in data set [5]. Besides, the viability at 48 h, 40 µM in data set [6] came to 96.3 ± 1.01%.
In the case of `N#Cc1ccccc1Cn1cc(-c2cccc(C(=O)Nc3ccc4c(c3)NC(=O)CO4)c2)nn1` [Compound 13o], the viability at 40 µM was determined as 64 ± 6.89% in data set [1]; 98.4 ± 2.58% in data set [2]; 104 ± 2.7% in data set [3]; 103 ± 2.66% in data set [4]; 97.9 ± 1.02% in data set [5]. In addition, the viability at 48 h, 40 µM in data set [6] was determined as 109 ± 1.51%.
For the compound `O=C1COc2ccc(NC(=O)c3cccc(-c4cn(-c5ccccc5Cl)nn4)c3)cc2N1` [Compound 14e], the results for the IC50 in data set [1] (setting [7]) and in data set [1] (setting [8]) were 29.1 ± 1.15 µM and 27.8 ± 0.96 µM, respectively. Further, the viability at 40 µM in data set [1] was found to be 46.5 ± 2.68%; in data set [2], 86.5 ± 4.84%; in data set [3], 134.1 ± 0.79%; in data set [4], 127 ± 1.89%; in data set [5] it was 118 ± 5.23%. In data set [1], the inhibition at 40 µM was greater than 50%. Besides, in data set [6], the viability at 48 h, 40 µM was 97.5 ± 2.69%.
Turning to `O=C1COc2ccc(NC(=O)c3cccc(-c4cn(Cc5cc(Cl)ccc5F)nn4)c3)cc2N1` [Compound 13h], the half-maximal inhibitory concentration (IC50) is 51.1 ± 2.54 µM in data set [1] (setting [7]) and 49 ± 4.27 µM in data set [1] (setting [8]). Besides, the viability at 40 µM in data set [1] was found to be 44.1 ± 2.78%; in data set [2], 89.7 ± 5.2%; in data set [3], 105 ± 2.37%; in data set [4], 94.2 ± 2.87%; in data set [5] it was 80.4 ± 3%. Further, the inhibition at 40 µM in data set [1] is greater than 50%. Moreover, the viability at 48 h, 40 µM in data set [6] is 125 ± 1.84%.
For the compound `COc1cc2ncnc(Nc3ccc(F)c(Cl)c3)c2cc1OCCCN1CCOCC1` [Gefitinib, reference compound], the “activity on A549 cells (in words)” value in data set [1] (A549, CCK-8) was “effective activity on A549 cells”. Further, the viability at 40 µM worked out at 31.1 ± 0.73% in data set [1]; 84.25 ± 0.32% in data set [2]; 55 ± 0.76% in data set [3]; 63.73 ± 0.62% in data set [4]; 75.2 ± 1.66% in data set [5]. For the same compound, in data set [6], the viability at 48 h, 40 µM was 82.11 ± 0.74%.
As to `O=C1COc2ccc(NC(=O)c3cccc(-c4cn(-c5cccc(Cl)c5)nn4)c3)cc2N1` [Compound 14d], the IC50 in data set [1] (setting [7]) was 38.7 ± 14.9 µM; in data set [1] (setting [8]), 34.8 ± 1.96 µM. Besides, the viability at 40 µM in data set [1] was found to be 29.01 ± 0.13%; in data set [2] it was 90.5 ± 3.81%; in data set [3], 141.3 ± 1.17%; in data set [4] it was 120 ± 2.54%; in data set [5], 134 ± 3.97%. Besides, the inhibition at 40 µM in data set [1] is greater than 50%. Moreover, the viability at 48 h, 40 µM in data set [6] was found to be 118 ± 2.43%.
As for `O=C1COc2ccc(NC(=O)c3cccc(-c4cn(Cc5cc(Br)cc(Br)c5)nn4)c3)cc2N1` [Compound 13k], the viability at 40 µM worked out at 140.65 ± 0.11% in data set [1]; 135 ± 2.4% in data set [2]; 129 ± 2% in data set [3]; 141 ± 1.94% in data set [4]; 152 ± 3.5% in data set [5]. Further, in data set [6], the viability at 48 h, 40 µM came out at 112 ± 1.63%.
With `O=C1COc2ccc(NC(=O)c3cccc(-c4cn(Cc5c(Cl)cccc5Cl)nn4)c3)cc2N1` [Compound 13n], the IC50 is 88.6 ± 18 µM in data set [1] (setting [7]) and 77 ± 6.21 µM in data set [1] (setting [8]). For the same compound, the viability at 40 µM in data set [1] was 55.6 ± 1.02%; in data set [2], 89.3 ± 1.41%; in data set [3] it was 129.4 ± 0.81%; in data set [4], 122 ± 3.23%; in data set [5], 83.1 ± 1.96%. For the same compound, the viability at 48 h, 40 µM in data set [6] turned out to be 104.7 ± 0.69%.
In the case of `O=C1COc2ccc(NC(=O)c3cccc(-c4cn(-c5cc(Cl)ccc5F)nn4)c3)cc2N1` [Compound 14g], the viability at 40 µM in data set [1] was 28.2 ± 0.55%; in data set [2], 87.6 ± 1.3%; in data set [3], 75.3 ± 1.09%; in data set [4] it was 45.5 ± 0.99%; in data set [5], 74.8 ± 1.72%. In addition, the inhibition at 40 µM in data set [1] is greater than 50%. Moreover, the viability at 48 h, 40 µM in data set [6] was found to be 103 ± 4.98%.
With `O=C1COc2ccc(NC(=O)c3cccc(-c4cn(Cc5cccc(Cl)c5)nn4)c3)cc2N1` [Compound 13g], the viability at 40 µM in data set [1] is 99.5 ± 3%; in data set [2], 109 ± 2.06%; in data set [3], 104 ± 3.8%; in data set [4], 104.5 ± 0.28%; in data set [5] it was 89.8 ± 1.75%. The viability at 48 h, 40 µM in data set [6] was 103.1 ± 0.72%.

One may read the viability as a read-out of living cells in per cent, often relative to untreated cells. One may read the IC50 as the concentration at which inhibition is half-maximal. Broadly, the inhibition is the percentage by which the read-out fell short of the control.
